{
  "source": "patent US10828315B2",
  "about": "(Madrigal Pharmaceuticals, Inc., priority 2013, dated 2020)",
  "key": {"[1]": {"tested_on": "human urinary bladder cancer cell line SW780", "assay": "Cytotoxicity assay (CellTiter-Glo, 72 h), SW780", "assay_type": "cell-based", "conditions": "SW780, 72 hours, read-out: Cytotoxicity (IC50, nM) SW-780", "method": "Cytotoxicity of SDC-TRAP molecules was determined in three cancer cell lines. […] 80 μL of CellTiter-Glo was added to each well, followed by room temperature incubation in the dark for 15 minutes. Cell was determined by luminescence. IC50 was calculated using XLfit™ software."}, "[2]": {"assay": "Physical appearance of SDC-TRAP-0063 formulations and infusion solutions with different diluents and carbonate buffers", "assay_type": "physicochemical", "conditions": "for Observations (physical appearance): 5% v/v DMSO", "description": "First, a stock solution of SDC-TRAP-0063 was prepared in DMSO at 22 mg/mL, then the required amount of tween 80 was added and mixed well.\nThe above formulation containing SDC-TRAP-0063 was diluted using either D5W, D5W (pH 10.5, adjusted with 4.55 mM NaOH) or carbonate buffer, pH 10) (final drug concentration.: 1 mg/mL SDC-TRAP-0063, 1.8% v/v Tween 80, 5% v/v DMSO). The physical observations on these solutions were noted before and filtration through 0.22μ PES filter and were further observed for 3 hr. Refer to the table below for summary of observations. Note: Carbonate buffer, pH 10 was prepared by mixing 0.1M sodium carbonate (27.5 mL) and 0.1M sodium bicarbonate (22.5 mL) and qs 200 mL with DIW. The total Na content of carbonate buffer was 39 mM.\nA stock solution of SDC-TRAP-0063 was prepared in either DMSO or PEG-300. To prepare formulations containing DMSO and tween 80, required amount of tween 80 added to the stock of DMSO (containing SDC-TRAP-0063). The formulations were then was diluted with carbonate buffer, pH 10 (composition: add and mix 0.1M sodium carbonate (27.5 mL) and 0.1M sodium bicarbonate (22.5 mL) and qs 200 mL with DIW). The samples (prepared in glass vial) were mixed well and observed for physical appearance while stirring on a magnetic stirring plate at ambient. (Note-appropriate amounts of SDC-TRAP-0063, tween 80, DMSO and PEG-300, as applicable were used to prepare the solutions at the desired concentrations and drug concentrations at 1 mg/mL through 5 mg/mL as shown).\nCarbonate buffers of different pH (pH 9-10) and ionic strengths (with higher (>2) Na contents that SDC-TRAP-0063 on molar basis) were prepared and used for diluting the DMSO/tween 80 formulation loaded with SDC-TRAP-0063 (as described in earlier section 3). The final concentrations of DMSO and tween 80 in the diluted carbonate buffer were 5% v/v and 1.8% v/v respectively. The drug concentration was kept constant (5 mg/mL) for all diluted samples."}},
  "data": [
    {"smiles": "CCc1c2c(nc3ccc(OC(=O)N4CCC(CCn5ccc6cc(-n7c(O)nnc7-c7cc(C(C)C)c(O)cc7O)ccc65)CC4)cc13)-c1cc3c(c(=O)n1C2)COC(=O)[C@]3(O)CC", "note": "[SDC-TRAP-0063, 4,11-diethyl-4-hydroxy-3,14-dioxo-3,4,12,14-tetrahydro-1H-pyrano[3′,4′:6,7]indolizino[1,2-b]quinolin-9-yl 4-(2-(5-(3-(2,4-dihydroxy-5-isopropylphenyl)-5-hydroxy-4H-1,2,4-triazol-4-yl)-1H-indol-1-yl)ethyl)piperidine-1-carboxylate]", "values": [
      {"measurement": "IC50", "setting": "[1]", "result": 261, "unit": "nM"},
      {"measurement": "physical appearance of stock solution", "setting": "[2]; 22 mg/mL in DMSO, and after addition of tween 80", "result": "clear and homogenous"},
      {"measurement": "physical appearance after dilution with carbonate buffer, pH 10", "setting": "[2]; 5% v/v DMSO + […] v/v tween 80, 1-5 mg/mL", "result": "clear at 2 hr of stirring"},
      {"measurement": "Observations (physical appearance)", "setting": "[2]; […] v/v Tween 80, carbonate buffer pH 10 (39 mM Na), 1 mg/mL, 30 min", "result": "Clear"},
      {"measurement": "Observations (physical appearance)", "setting": "[2]; […] v/v Tween 80, carbonate buffer pH 10 (39 mM Na), 1 mg/mL, 1 h", "result": "Clear"},
      {"measurement": "Observations (physical appearance)", "setting": "[2]; […] v/v Tween 80, carbonate buffer pH 10 (39 mM Na), 1 mg/mL, 2 h", "result": "Clear"},
      {"measurement": "Observations (physical appearance)", "setting": "[2]; […] v/v Tween 80, carbonate buffer pH 10 (39 mM Na), 1 mg/mL, Initial", "result": "Clear"},
      {"measurement": "Observations (physical appearance)", "setting": "[2]; […] v/v Tween 80, carbonate buffer pH 10 (39 mM Na), 1 mg/mL, Overnight", "result": "Clear"},
      {"measurement": "Observations (physical appearance)", "setting": "[2]; […] v/v Tween 80, carbonate buffer pH 10 (39 mM Na), 2 mg/mL, 30 min", "result": "Clear"},
      {"measurement": "Observations (physical appearance)", "setting": "[2]; […] v/v Tween 80, carbonate buffer pH 10 (39 mM Na), 2 mg/mL, 1 h", "result": "Clear"},
      {"measurement": "Observations (physical appearance)", "setting": "[2]; […] v/v Tween 80, carbonate buffer pH 10 (39 mM Na), 2 mg/mL, 2 h", "result": "Clear"},
      {"measurement": "Observations (physical appearance)", "setting": "[2]; […] v/v Tween 80, carbonate buffer pH 10 (39 mM Na), 2 mg/mL, Initial", "result": "Clear"},
      {"measurement": "Observations (physical appearance)", "setting": "[2]; […] v/v Tween 80, carbonate buffer pH 10 (39 mM Na), 2 mg/mL, Overnight", "result": "Clear"},
      {"measurement": "Observations (physical appearance)", "setting": "[2]; […] v/v Tween 80, carbonate buffer pH 10 (39 mM Na), 3 mg/mL, 30 min", "result": "Cloudy"},
      {"measurement": "Observations (physical appearance)", "setting": "[2]; […] v/v Tween 80, carbonate buffer pH 10 (39 mM Na), 3 mg/mL, 1 h", "result": "Clear"},
      {"measurement": "Observations (physical appearance)", "setting": "[2]; […] v/v Tween 80, carbonate buffer pH 10 (39 mM Na), 3 mg/mL, 2 h", "result": "Clear"},
      {"measurement": "Observations (physical appearance)", "setting": "[2]; […] v/v Tween 80, carbonate buffer pH 10 (39 mM Na), 3 mg/mL, Initial", "result": "Cloudy"},
      {"measurement": "Observations (physical appearance)", "setting": "[2]; […] v/v Tween 80, carbonate buffer pH 10 (39 mM Na), 3 mg/mL, Overnight", "result": "Clear"},
      {"measurement": "Observations (physical appearance)", "setting": "[2]; […] v/v Tween 80, carbonate buffer pH 10 (39 mM Na), 4 mg/mL, 30 min", "result": "Cloudy"},
      {"measurement": "Observations (physical appearance)", "setting": "[2]; […] v/v Tween 80, carbonate buffer pH 10 (39 mM Na), 4 mg/mL, 1 h", "result": "Cloudy"},
      {"measurement": "Observations (physical appearance)", "setting": "[2]; […] v/v Tween 80, carbonate buffer pH 10 (39 mM Na), 4 mg/mL, 2 h", "result": "Clear"},
      {"measurement": "Observations (physical appearance)", "setting": "[2]; […] v/v Tween 80, carbonate buffer pH 10 (39 mM Na), 4 mg/mL, Initial", "result": "Cloudy"},
      {"measurement": "Observations (physical appearance)", "setting": "[2]; […] v/v Tween 80, carbonate buffer pH 10 (39 mM Na), 4 mg/mL, Overnight", "result": "Clear"},
      {"measurement": "Observations (physical appearance)", "setting": "[2]; […] v/v Tween 80, carbonate buffer pH 10 (39 mM Na), 5 mg/mL, 30 min", "result": "Cloudy"},
      {"measurement": "Observations (physical appearance)", "setting": "[2]; […] v/v Tween 80, carbonate buffer pH 10 (39 mM Na), 5 mg/mL, 1 h", "result": "Cloudy"},
      {"measurement": "Observations (physical appearance)", "setting": "[2]; […] v/v Tween 80, carbonate buffer pH 10 (39 mM Na), 5 mg/mL, 2 h", "result": "Clear"},
      {"measurement": "Observations (physical appearance)", "setting": "[2]; […] v/v Tween 80, carbonate buffer pH 10 (39 mM Na), 5 mg/mL, Initial", "result": "Cloudy"},
      {"measurement": "Observations (physical appearance)", "setting": "[2]; […] v/v Tween 80, carbonate buffer pH 10 (39 mM Na), 5 mg/mL, Overnight", "result": "Clear"},
      {"measurement": "Observations (physical appearance)", "setting": "[2]; […] v/v Tween 80, 5 mg/mL, Carbonate buffer, pH 9.2 (25 mM Na), 1 h", "result": "Cloudy"},
      {"measurement": "Observations (physical appearance)", "setting": "[2]; […] v/v Tween 80, 5 mg/mL, Carbonate buffer, pH 9.2 (25 mM Na), 2 h", "result": "Cloudy"},
      {"measurement": "Observations (physical appearance)", "setting": "[2]; […] v/v Tween 80, 5 mg/mL, Carbonate buffer, pH 9.2 (25 mM Na), 3 h", "result": "Cloudy"},
      {"measurement": "Observations (physical appearance)", "setting": "[2]; […] v/v Tween 80, 5 mg/mL, Carbonate buffer, pH 9.2 (25 mM Na), Initial", "result": "Cloudy"},
      {"measurement": "Observations (physical appearance)", "setting": "[2]; […] v/v Tween 80, 5 mg/mL, Carbonate buffer, pH 9.2 (25 mM Na), Overnight", "result": "Cloudy"},
      {"measurement": "Observations (physical appearance)", "setting": "[2]; […] v/v Tween 80, 5 mg/mL, Carbonate buffer, pH 9.5 (26.5 mM Na), 1 h", "result": "Cloudy"},
      {"measurement": "Observations (physical appearance)", "setting": "[2]; […] v/v Tween 80, 5 mg/mL, Carbonate buffer, pH 9.5 (26.5 mM Na), 2 h", "result": "Cloudy"},
      {"measurement": "Observations (physical appearance)", "setting": "[2]; […] v/v Tween 80, 5 mg/mL, Carbonate buffer, pH 9.5 (26.5 mM Na), 3 h", "result": "Cloudy"},
      {"measurement": "Observations (physical appearance)", "setting": "[2]; […] v/v Tween 80, 5 mg/mL, Carbonate buffer, pH 9.5 (26.5 mM Na), Initial", "result": "Cloudy"},
      {"measurement": "Observations (physical appearance)", "setting": "[2]; […] v/v Tween 80, 5 mg/mL, Carbonate buffer, pH 9.5 (26.5 mM Na), Overnight", "result": "Cloudy"},
      {"measurement": "Observations (physical appearance)", "setting": "[2]; […] v/v Tween 80, 5 mg/mL, Carbonate buffer, pH 9.5 ([…] Na), 1 h", "result": "Cloudy"},
      {"measurement": "Observations (physical appearance)", "setting": "[2]; […] v/v Tween 80, 5 mg/mL, Carbonate buffer, pH 9.5 ([…] Na), 2 h", "result": "Cloudy"},
      {"measurement": "Observations (physical appearance)", "setting": "[2]; […] v/v Tween 80, 5 mg/mL, Carbonate buffer, pH 9.5 ([…] Na), 3 h", "result": "Clear"},
      {"measurement": "Observations (physical appearance)", "setting": "[2]; […] v/v Tween 80, 5 mg/mL, Carbonate buffer, pH 9.5 ([…] Na), Initial", "result": "Cloudy"},
      {"measurement": "Observations (physical appearance)", "setting": "[2]; […] v/v Tween 80, 5 mg/mL, Carbonate buffer, pH 9.5 ([…] Na), Overnight", "result": "Clear"},
      {"measurement": "Observations (physical appearance)", "setting": "[2]; […] v/v Tween 80, 5 mg/mL, Carbonate buffer, pH 10 (39 mM Na), 1 h", "result": "Cloudy"},
      {"measurement": "Observations (physical appearance)", "setting": "[2]; […] v/v Tween 80, 5 mg/mL, Carbonate buffer, pH 10 (39 mM Na), 2 h", "result": "Clear yellow"},
      {"measurement": "Observations (physical appearance)", "setting": "[2]; […] v/v Tween 80, 5 mg/mL, Carbonate buffer, pH 10 (39 mM Na), 3 h", "result": "Clear yellow"},
      {"measurement": "Observations (physical appearance)", "setting": "[2]; […] v/v Tween 80, 5 mg/mL, Carbonate buffer, pH 10 (39 mM Na), Initial", "result": "Cloudy"},
      {"measurement": "Observations (physical appearance)", "setting": "[2]; […] v/v Tween 80, 5 mg/mL, Carbonate buffer, pH 10 (39 mM Na), Overnight", "result": "Clear yellow"},
      {"measurement": "Observations (physical appearance)", "setting": "[2]; […] v/v Tween 80, 5 mg/mL, Carbonate buffer, pH 10 (155 mM Na), 1 h", "result": "Clear"},
      {"measurement": "Observations (physical appearance)", "setting": "[2]; […] v/v Tween 80, 5 mg/mL, Carbonate buffer, pH 10 (155 mM Na), 2 h", "result": "Clear yellow"},
      {"measurement": "Observations (physical appearance)", "setting": "[2]; […] v/v Tween 80, 5 mg/mL, Carbonate buffer, pH 10 (155 mM Na), 3 h", "result": "Clear yellow"},
      {"measurement": "Observations (physical appearance)", "setting": "[2]; […] v/v Tween 80, 5 mg/mL, Carbonate buffer, pH 10 (155 mM Na), Initial", "result": "Cloudy"},
      {"measurement": "Observations (physical appearance)", "setting": "[2]; […] v/v Tween 80, 5 mg/mL, Carbonate buffer, pH 10 (155 mM Na), Overnight", "result": "Clear yellow"},
      {"measurement": "Observations (physical appearance)", "setting": "[2]; carbonate buffer pH 10 (39 mM Na), 1 mg/mL, 30 min", "result": "Cloudy"},
      {"measurement": "Observations (physical appearance)", "setting": "[2]; carbonate buffer pH 10 (39 mM Na), 1 mg/mL, 1 h", "result": "Cloudy"}
    ]}
  ]
}
